According to paper PMC11848559, “Inhibition of CDH11 Activates cGAS‐STING by Stimulating Branched Chain Amino Acid Catabolism and Mitigates Lung Metastasis of Adenoid Cystic Carcinoma” (Advanced Science, 2024):
Where two headings read alike, the source gives them in different places.

Tests used:
[1] = target: T1, Recombinant Human His-Tagged Cadherin-11 Protein (CDH11) (Homo sapiens, UniProt P55287); assay: surface plasmon resonance (Biacore, CM7 chip, protein immobilised); type: binding
T1 construct: commercial recombinant His-tagged protein (Sino Biological); amine-coupled to CM7 chip
T1 sequence (P55287 54-617 limits assumed): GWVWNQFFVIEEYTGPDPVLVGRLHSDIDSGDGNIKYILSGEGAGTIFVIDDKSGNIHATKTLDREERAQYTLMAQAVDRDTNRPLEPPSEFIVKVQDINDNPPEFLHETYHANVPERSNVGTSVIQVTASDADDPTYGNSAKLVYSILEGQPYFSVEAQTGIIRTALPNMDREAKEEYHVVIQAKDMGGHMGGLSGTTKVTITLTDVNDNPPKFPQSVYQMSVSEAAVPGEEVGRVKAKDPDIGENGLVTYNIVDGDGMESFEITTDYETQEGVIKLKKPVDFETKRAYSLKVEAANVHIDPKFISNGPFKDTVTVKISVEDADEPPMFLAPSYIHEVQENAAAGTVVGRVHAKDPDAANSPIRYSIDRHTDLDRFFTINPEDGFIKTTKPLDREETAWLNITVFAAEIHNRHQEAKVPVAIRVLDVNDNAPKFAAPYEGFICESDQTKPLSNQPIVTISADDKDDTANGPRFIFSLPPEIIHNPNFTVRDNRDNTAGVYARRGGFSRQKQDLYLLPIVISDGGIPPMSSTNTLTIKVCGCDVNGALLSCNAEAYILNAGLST

[2] = target: T2, CDH11 (SACC-83 cells) (Homo sapiens, UniProt P55287); assay: cellular thermal shift assay (western blot); type: cell-based; settings: intact cells, 6 h treatment at cell-viability IC50 dose; 53-66 °C, 3 min
T2 construct: endogenous CDH11 in intact SACC-83 cells, untagged, detected by western blot with anti-CDH11 antibody
T2 sequence (P55287 54-796): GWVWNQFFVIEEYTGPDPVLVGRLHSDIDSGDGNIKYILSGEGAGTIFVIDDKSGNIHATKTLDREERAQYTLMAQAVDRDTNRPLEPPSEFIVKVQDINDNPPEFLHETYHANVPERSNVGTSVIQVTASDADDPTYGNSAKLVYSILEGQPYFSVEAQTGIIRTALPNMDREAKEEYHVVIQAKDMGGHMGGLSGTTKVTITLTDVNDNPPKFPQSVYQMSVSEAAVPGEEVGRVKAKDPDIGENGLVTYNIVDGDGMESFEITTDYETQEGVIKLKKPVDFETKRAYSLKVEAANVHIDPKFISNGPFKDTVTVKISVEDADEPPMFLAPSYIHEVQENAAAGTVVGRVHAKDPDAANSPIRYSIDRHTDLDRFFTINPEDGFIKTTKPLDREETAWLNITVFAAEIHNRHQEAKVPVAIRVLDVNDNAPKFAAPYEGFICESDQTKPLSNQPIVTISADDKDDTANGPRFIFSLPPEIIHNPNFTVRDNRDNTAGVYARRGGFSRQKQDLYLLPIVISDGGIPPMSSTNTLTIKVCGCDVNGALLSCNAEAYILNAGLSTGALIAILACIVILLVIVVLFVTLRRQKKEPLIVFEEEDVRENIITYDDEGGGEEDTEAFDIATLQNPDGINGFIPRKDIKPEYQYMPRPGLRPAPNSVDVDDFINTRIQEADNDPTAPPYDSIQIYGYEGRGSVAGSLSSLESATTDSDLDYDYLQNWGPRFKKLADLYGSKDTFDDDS

Compound | Kd ([1]; 25 °C, analyte 3.125-100 µM) | cellular thermal shift assay (western blot) [2] | Kd [1]
SD-133 | 27.4 µM | – | –
Cc1ccc(-c2cc(C(F)(F)F)nn2-c2ccc(S(N)(=O)=O)cc2)cc1 [CXB, Celecoxib] | – | All three compounds exhibited significant binding capability toward CDH11 | 4.67 µM
Cc1ccc(C)c(-c2cc(C(F)(F)F)nn2-c2ccc(S(N)(=O)=O)cc2)c1 [DMC, Dimethylcelecoxib] | – | All three compounds exhibited significant binding capability toward CDH11 | 10.9 µM
